This is an account of results in PMC11828983 (Scientific Reports, 2025).

The target of one experiment is T1, α3 GlyR (homomeric) (Rattus norvegicus, UniProt P24524).
T1 sequence (P24524 34-464): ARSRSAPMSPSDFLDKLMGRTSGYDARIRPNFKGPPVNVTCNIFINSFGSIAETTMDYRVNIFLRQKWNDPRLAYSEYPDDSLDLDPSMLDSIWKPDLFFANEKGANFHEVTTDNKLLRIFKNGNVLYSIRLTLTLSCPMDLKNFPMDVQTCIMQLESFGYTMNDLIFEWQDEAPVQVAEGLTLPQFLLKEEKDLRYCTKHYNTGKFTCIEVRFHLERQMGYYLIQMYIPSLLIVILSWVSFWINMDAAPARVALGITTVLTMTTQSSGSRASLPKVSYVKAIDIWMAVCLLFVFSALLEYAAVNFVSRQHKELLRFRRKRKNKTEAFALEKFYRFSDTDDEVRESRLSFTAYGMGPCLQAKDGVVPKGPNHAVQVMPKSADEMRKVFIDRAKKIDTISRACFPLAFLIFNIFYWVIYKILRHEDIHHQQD
In words: whole-cell patch clamp, direct activation. The class given is cell-based. To be noted: no glycine added; agonist; residual glycine not excluded.

The next experiment addresses T2, α1 GlyR (homomeric) (Rattus norvegicus, UniProt Q546L7).
T2 sequence (Q546L7 29-449): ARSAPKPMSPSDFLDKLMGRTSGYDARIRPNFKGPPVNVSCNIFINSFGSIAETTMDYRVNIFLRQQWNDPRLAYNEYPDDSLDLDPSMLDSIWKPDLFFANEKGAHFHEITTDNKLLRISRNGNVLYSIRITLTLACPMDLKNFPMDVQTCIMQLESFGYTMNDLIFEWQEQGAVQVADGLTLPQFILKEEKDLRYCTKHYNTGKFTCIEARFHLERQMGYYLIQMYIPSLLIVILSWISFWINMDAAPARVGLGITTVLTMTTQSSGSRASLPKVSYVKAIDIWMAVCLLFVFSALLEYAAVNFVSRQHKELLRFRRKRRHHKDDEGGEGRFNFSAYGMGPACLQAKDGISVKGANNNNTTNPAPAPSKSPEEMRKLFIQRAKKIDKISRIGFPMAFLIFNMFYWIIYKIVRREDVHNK
As to the kind of experiment: whole-cell patch clamp, direct activation. Particulars: no glycine added; agonist; residual glycine not excluded. The class given is cell-based. On the technique in general: Patch clamp records ionic current or voltage across a cell membrane.

As for AM-1488, the results for the “% of maximal glycine current at 100 μM” value on α3 GlyR (homomeric) and on α1 GlyR (homomeric) were ~ 15% and over 20%, respectively.
